# Test results as given in patent US20220362365A1, “IMPROVED COMPOSITIONS AND METHODS FOR SHARED NEO-EPITOPE VACCINES” (Epivax Therapeutics Inc., priority 2019, published 2022).
# What was measured:
# [1] = system: CT26 murine colon tumor cells; experiment: Anti-tumor activity with or without poly-ICLC, CT26 murine tumor model (Example 13); type: in vivo; conditions: CT26 tumor-bearing BALB/c mice, n=10, day 25 post-tumor implantation, relative to PBS or poly-ICLC alone
# Method: The goal of this experiment was to determine the requirement for the inclusion of the adjuvant poly-ICLC in a peptide vaccine containing ANCER™ selected neoantigens. For this experiment, female BALB/c mice were implanted subcutaneously with 3×10^5 CT26 murine colon tumor cells. Tumor growth was monitored by caliper measurement and mice were sacrificed 45 days after tumor implantation or when tumor volumes reached 2000 mm^3, whichever came first.
# Four vaccine groups were tested (n=10 mice/group): • Group 1=PBS only • Group 2=PBS with 50 μg poly-ICLC • Group 3=20 ANCER™ selected (uncapped) peptides with 50 μg poly-ICLC • Group 4=20 ANCER™ selected (uncapped) peptides only
# Peptide vaccines were comprised of 20 different ANCER™ selected peptides at a concentration of 5 μg/peptide for a total dose of 100 μg peptide per immunization. Mice were immunized subcutaneously in the opposite flank from tumor implantation twice per week for three weeks, starting at day 4 post-tumor implantation.
# CT26 tumor cells = experiment: CT26 tumor growth / survival after vaccination (Example 1); type: in vivo; conditions: CT26 tumor-bearing Balb/c mice
substance,measurement,setting,value
poly-ICLC,control of tumor growth,[1],no difference in tumor growth kinetics
same,tumor burden compared to Group 1 (mice immunized with PBS),"CT26 tumor cells; 50 μg sc days 5, 8, 12, 15, 19, 22, 26",no reduction in tumor burden
same,mice surviving past day 28,CT26 tumor cells; N=10,Less than 50%
same,mice surviving the 45 days of the experiment (in words),CT26 tumor cells; N=10,None
same,"mice reaching a tumor volume of at least 2,000 mm^3 (endpoint) by day 28","CT26 tumor cells; N=10, day 28, PBS group 70%",60%
